Laboratory results as given in patent publication EP4467137A1, “TREATMENT OF FRONTOTEMPORAL DEMENTIA OR FRONTOTEMPORAL LOBAR DEMENTIA” (Universidad Autónoma de Madrid, priority 2023, dated 2024).

How the values were obtained:
[1] = test system: primary rat glial cultures; assay: Anti-neuroinflammatory screening in LPS-treated primary glial cultures (Griess, normalized by MTT); assay type: cell-based; details: % reduction of nitrites, LPS alone = 100 % inflammation, read-out: Anti-neuro inflammatory effect at 3 µM (%)
Experimental: Screening for anti-inflammatory properties in primary rat glial cultures was performed according to the protocol described previously [Gameiro, Isabel et al. "Discovery of the first dual GSK3β inhibitor/Nrf2 inducer. A new multitarget therapeutic strategy for Alzheimer's disease." Scientific reports vol. 7 45701. 31 Mar. 2017, doi:10.1038/srep45701]. All compounds were evaluated at the single concentration of 3 µM. Neuroinflammation was quantified as the value of released […], measured by the Griess method, normalized by the number of viable cells measured by the MTT method [Mosmann, T. "Rapid colorimetric assay for cellular growth and survival: application to proliferation and cytotoxicity assays." Journal of immunological methods vol. 65, 1-2 (1983): 55-63. doi:10.1016/0022-1759(83)90303-4]. LPS alone was considered 100 % inflammation.
(§1) Based on the results obtained (Table 2), Compound 1 was selected for further in vitro and in vivo studies as it was endowed with the best anti-neuroinflammatory activity. Table 2: Comparative in vitro results. Cell viability/toxicity: effect of the compound per se on cell viability of […] cells measured with the MTT method. Anti-neuroinflammatory effect: % Reduction of nitrites in primary rat glial cultures. PAMPA-BBB: In vitro blood-brain barrier permeation assay, permeation rate Pe (10-6 cm.s-1). NRF2, CD (µM): Concentration of compound that doubles de activation of NRF2. ORAC: Oxygen radical absorbance capacity. LOX-5: lipoxygenase-5.

[2] = test system: NRF2; assay: NRF2 induction, luciferase activity in AREc32 cells; assay type: cell-based; details: concentration that doubles the activation of NRF2, read-out: NRF2 CD
Description: Screening of NRF2 induction was quantified by luciferase activity in AREc32 cells as described in [Herrera-Arozamena, Clara et al. "Tuning melatonin receptor subtype selectivity in oxadiazolone-based analogues: Discovery of QR2 ligands and NRF2 activators with neurogenic properties." European journal of medicinal chemistry vol. 190 (2020): 112090. doi:10.1016/j.ejmech.2020.112090].
as §1

[3] = test system: hyperphosphorylated tau; assay: In vivo hTauP301L model: hippocampal hyperphosphorylated tau by AT8 and AT180 immunofluorescence; set-up: species or system mouse; details: 35 days
Experimental: In vivo hTau301L model was induced by stereotaxic injection of AAV-hTauP301L (AAV-hTau) particles as described in [Luengo, Enrique et al. "Implication of type 4 NADPH oxidase (NOX4) in tauopathy." Redox biology vol. 49 (2022): 102210. doi:10.1016/j.redox.2021.102210 ]. Control animals were injected with AAV-GFP. Evaluation of hyperphosphorylated tau in sarkosyl soluble and insoluble fractions; microgliosis; AT8 and AT180 by immunofluorescence; and cognitive test were performed as described previously [Luengo, Enrique et al. "Implication of type 4 NADPH oxidase (NOX4) in tauopathy." Redox biology vol. 49 (2022): 102210. doi:10.1016/j.redox.2021.102210 ].
Oral administration of Compound 1 at different dosages (20 mg·kg^-1 and 50 mg·kg^-1) was administered embedded in gelatine. The compound was given in a mixture of 10 % gelatine from porcine skin and 10 % sucralose in water, heated in a microwave oven. Before Compound 1 addition, gelatine mixture was left at RT. Afterwards, the compound was added, evenly mixed and plated 1 mL·well^-1 in a P24 plate. Before AAV injection, mice were trained to eat the gelatines by giving them one gelatine (without compound) per day for 4 consecutive days. After AAV injection, mice were treated once a day with control or Compound 1 gelatines for 35 consecutive days. This approach was followed in adult (3-4 months old) and aged (16-18 months old) mice injected with AAV-GFP or AAV-hTauP301L.
Example 2.5. Compound 1 ameliorates hTauP301L induced FTD and cognitive decline in adult (3-4 months old) mice. FTD was generated in adult male and female C57BL/6J mice (3-4 months old) by bihippocampal injection of AAV-hTau particles containing the P301L mutation. Mice were treated orally once a day with a single dose of 20 or 50 mg/kg of Compound 1 formulated in gelatines the day after stereotaxic delivery of AAVs (GFP or TauP301L, to controls and FTD, respectively). After 35 days treatment, hyperphosphorylated tau levels were evaluated by immunofluorescence and by WB in soluble and insoluble in sarkosyl fractions. Also, behavioural tests were conducted to study the cognition status of the mice.
Hyperphosphorylated tau levels measured with the antibodies AT8 (p-Ser202/p-Thr205) and AT180 (p-Thr231) were analysed by immunofluorescence in fixed postmortem brain slices of treated mice (Figure 7A).
Example 2.6. Compound 1 ameliorates hTauP301L induced FTD and cognitive decline in aged (16-18 months old) mouse. To include the aging effect in the FTD model, the previous experiments were replicated in male and female 16-18 months old C57/BL6J mice.

[4] = adult (3-4 months old) mice, 50 mg/kg/day oral
[5] = aged (16-18 months old) mice, 50 mg/kg oral

Q: `COc1ccc2c(c1)CC(c1c[nH]c3ccc(OC)cc13)N2` (stereo not drawn) [Compound 1, 5-Methoxy-3-(5-methoxyindolin-2-yl)-1H-indole] was tested. Which inhibition at 3 µM [1] did it give?
A: 100 ± 6.6%

Q: What about the EC (2-fold activation) [2] of the same compound?
A: 0.56 ± 0.05 µM

Q: What about the “AT8 fluorescence in hippocampus (DG, CA1 and CA3)” value [3, 4] of the same compound?
A: significantly reduced

Q: And the “AT180 fluorescence in hippocampus (DG, CA1 and CA3)” value [3, 4]?
A: significantly reduced

Q: What about the “hyperphosphorylated tau levels by AT8 in DG, CA3 and CA1” value [3, 5] of the same compound?
A: reduced

Q: What about the “hyperphosphorylated tau levels by AT180 in DG, CA3 and CA1” value [3, 5] of the same compound?
A: reduced
